Experimental data published in PubChem BioAssay AID1963437 (Molecular Pharmacology Branch, DTP, NCI, 2024).
Where “and” joins values, the source holds several entries; their conditions need not be identical. Identical values can stand only once. Blank lines part the entries; values can stand above or below the compound they belong to.

System: OVCAR-8 complex spheroid, growth inhibition
Experiment: Anticancer human tumor OVCAR-8 cell line growth inhibition [Asc];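 also: spheroids exposed to agents for 7 days before readout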;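 as to viability, T/C: percent viability relative to DMSO vehicle wells taken as 100%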
Conditions: for viability, T/C: stronger effect = lower value
How it was run: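 Tumor cells were grown as multicellular spheroids with stromal HUVEC and mesenchymal stem cells and treated singly or in combination. Concentrations fell in half-log steps from the clinical Cmax, or from 10 microM where none was known.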

[1] = curve of first compound, second compound 0.0316 µM
[2] = curve of first compound, second compound 0.1 µM
[3] = curve of first compound, second compound 0.316 µM
[4] = curve of first compound, second compound 1 µM

- IC50 (curve of compound): > 100 nM
Structure (SMILES): Cn1ncnc1[C@H]1c2n[nH]c(=O)c3cc(F)cc(c23)N[C@@H]1c1ccc(F)cc1
- viability, T/C (compound 0.000316 µM): 92.4% and 93.5% and 99.5%
- viability, T/C (compound 0.001 µM): 94.9% and 97.8% and 88.9%
- viability, T/C (compound 0.00316 µM): 95.5% and 93.6% and 106%
- viability, T/C (compound 0.01 µM): 114% and 102% and 109%
- viability, T/C (compound 0.0316 µM): 115% and 117% and 105%
- viability, T/C (compound 0.1 µM): 132% and 102% and 125%

- IC50 (curve of compound): > 300 nM and 54.1 nM
Structure (SMILES): NC(=O)C(=Cn1cnc(-c2cc(C(F)(F)F)cc(C(F)(F)F)c2)n1)c1cncnc1
- viability, T/C (compound 0.000949 µM): 100% and 101% and 69.2%
- viability, T/C (compound 0.003 µM): 90% and 81.8% and 98.6%
- viability, T/C (compound 0.00949 µM): 99.8% and 91.2% and 111%
- viability, T/C (compound 0.03 µM): 95.4% and 109% and 92.8%

- IC50 (curve of first compound, second compound 0.00316 µM): > 1000 nM
- IC50 (curve of first compound, second compound 0.01 µM): > 1000 nM
- IC50 [1]: 969 nM
- IC50 [2]: 641 nM
- IC50 [3]: 548 nM
- IC50 [4]: 508 nM
Structure (SMILES): O=C(c1ccc(F)c(F)c1Nc1ccc(I)cc1F)N1CC(O)([C@@H]2CCCCN2)C1 + CNC(C)C(=O)NC1CN(S(=O)(=O)c2cccc(S(=O)(=O)N3CCC4CCC(C(=O)NC(c5ccccc5)c5ccccc5)N4C(=O)C(NC(=O)C(C)NC)C3)c2)CCC2CCC(C(=O)NC(c3ccccc3)c3ccccc3)N2C1=O
- viability, T/C (second compound 0.00316 µM, first compound 0.00316 µM): 113%
- viability, T/C (second compound 0.00316 µM, first compound 0.01 µM): 97%
- viability, T/C (second compound 0.00316 µM, first compound 0.0316 µM): 153%
- viability, T/C (second compound 0.00316 µM, first compound 0.1 µM): 166%
- viability, T/C (second compound 0.00316 µM, first compound 0.316 µM): 232%
- viability, T/C (second compound 0.00316 µM, first compound 1 µM): 84.5%
- viability, T/C (second compound 0.01 µM, first compound 0.00316 µM): 97.3%
- viability, T/C (second compound 0.01 µM, first compound 0.01 µM): 101%
- viability, T/C (second compound 0.01 µM, first compound 0.0316 µM): 146%
- viability, T/C (second compound 0.01 µM, first compound 0.1 µM): 185%
- viability, T/C (second compound 0.01 µM, first compound 0.316 µM): 223%
- viability, T/C (second compound 0.01 µM, first compound 1 µM): 98.7%
- viability, T/C (second compound 0.0316 µM, first compound 0.00316 µM): 95.2%
- viability, T/C (second compound 0.0316 µM, first compound 0.01 µM): 99.8%
- viability, T/C (second compound 0.0316 µM, first compound 0.0316 µM): 116%
- viability, T/C (second compound 0.0316 µM, first compound 0.1 µM): 163%
- viability, T/C (second compound 0.0316 µM, first compound 0.316 µM): 216%
- viability, T/C (second compound 0.0316 µM, first compound 1 µM): 47.5%
- viability, T/C (second compound 0.1 µM, first compound 0.00316 µM): 82.3%
- viability, T/C (second compound 0.1 µM, first compound 0.01 µM): 82.2%
- viability, T/C (second compound 0.1 µM, first compound 0.0316 µM): 118%
- viability, T/C (second compound 0.1 µM, first compound 0.1 µM): 168%
- viability, T/C (second compound 0.1 µM, first compound 0.316 µM): 153%
- viability, T/C (second compound 0.1 µM, first compound 1 µM): 5.38%
- viability, T/C (second compound 0.316 µM, first compound 0.00316 µM): 70.8%
- viability, T/C (second compound 0.316 µM, first compound 0.01 µM): 80.3%
- viability, T/C (second compound 0.316 µM, first compound 0.0316 µM): 90.4%
- viability, T/C (second compound 0.316 µM, first compound 0.1 µM): 120%
- viability, T/C (second compound 0.316 µM, first compound 0.316 µM): 108%
- viability, T/C (second compound 0.316 µM, first compound 1 µM): 2.09%
- viability, T/C (second compound 1 µM, first compound 0.00316 µM): 76.4%
- viability, T/C (second compound 1 µM, first compound 0.01 µM): 94.9%
- viability, T/C (second compound 1 µM, first compound 0.0316 µM): 101%
- viability, T/C (second compound 1 µM, first compound 0.1 µM): 106%
- viability, T/C (second compound 1 µM, first compound 0.316 µM): 83.9%
- viability, T/C (second compound 1 µM, first compound 1 µM): 1.27%

- IC50 [1]: > 3000 nM
- IC50 [2]: > 3000 nM
- IC50 [3]: > 3000 nM
- IC50 [4]: > 3000 nM
- IC50 (curve of first compound, second compound 3.16 µM): > 3000 nM
- IC50 (curve of first compound, second compound 10 µM): > 3000 nM
Structure (SMILES): CCN1C(C(=O)NC23CCC(C(=O)O)(CC2)CC3)C(c2cccc(Cl)c2F)C2(C(=O)Nc3cc(Cl)ccc32)C12CCCCC2 (stereo not drawn) + Cc1c(S(C)(=O)=O)c(-c2cc(F)cc(N3CCN(c4ccc(NS(=O)(=O)c5ccc(NC(CCN6CCC(C(=O)OCCCP(=O)(O)O)CC6)CSc6ccccc6)c(S(=O)(=O)C(F)(F)F)c5)cc4)CC3)c2)c(-c2ccc(Cl)cc2)n1C(C)C
- viability, T/C (second compound 0.0316 µM, first compound 0.00949 µM): 92.4%
- viability, T/C (second compound 0.0316 µM, first compound 0.03 µM): 99.1%
- viability, T/C (second compound 0.0316 µM, first compound 0.0949 µM): 99.5%
- viability, T/C (second compound 0.0316 µM, first compound 0.3 µM): 90%
- viability, T/C (second compound 0.0316 µM, first compound 0.949 µM): 107%
- viability, T/C (second compound 0.0316 µM, first compound 3 µM): 109%
- viability, T/C (second compound 0.1 µM, first compound 0.00949 µM): 90.1%
- viability, T/C (second compound 0.1 µM, first compound 0.03 µM): 95.8%
- viability, T/C (second compound 0.1 µM, first compound 0.0949 µM): 94.8%
- viability, T/C (second compound 0.1 µM, first compound 0.3 µM): 89.8%
- viability, T/C (second compound 0.1 µM, first compound 0.949 µM): 101%
- viability, T/C (second compound 0.1 µM, first compound 3 µM): 105%
- viability, T/C (second compound 0.316 µM, first compound 0.00949 µM): 108%
- viability, T/C (second compound 0.316 µM, first compound 0.03 µM): 99.9%
- viability, T/C (second compound 0.316 µM, first compound 0.0949 µM): 94.8%
- viability, T/C (second compound 0.316 µM, first compound 0.3 µM): 105%
- viability, T/C (second compound 0.316 µM, first compound 0.949 µM): 102%
- viability, T/C (second compound 0.316 µM, first compound 3 µM): 125%
- viability, T/C (second compound 1 µM, first compound 0.00949 µM): 109%
- viability, T/C (second compound 1 µM, first compound 0.03 µM): 93.1%
- viability, T/C (second compound 1 µM, first compound 0.0949 µM): 93.5%
- viability, T/C (second compound 1 µM, first compound 0.3 µM): 106%
- viability, T/C (second compound 1 µM, first compound 0.949 µM): 112%
- viability, T/C (second compound 1 µM, first compound 3 µM): 144%
- viability, T/C (second compound 3.16 µM, first compound 0.00949 µM): 118%
- viability, T/C (second compound 3.16 µM, first compound 0.03 µM): 95.2%
- viability, T/C (second compound 3.16 µM, first compound 0.0949 µM): 88.3%
- viability, T/C (second compound 3.16 µM, first compound 0.3 µM): 101%
- viability, T/C (second compound 3.16 µM, first compound 0.949 µM): 98.8%
- viability, T/C (second compound 3.16 µM, first compound 3 µM): 144%
- viability, T/C (second compound 10 µM, first compound 0.00949 µM): 113%
- viability, T/C (second compound 10 µM, first compound 0.03 µM): 104%
- viability, T/C (second compound 10 µM, first compound 0.0949 µM): 106%
- viability, T/C (second compound 10 µM, first compound 0.3 µM): 86.7%
- viability, T/C (second compound 10 µM, first compound 0.949 µM): 132%
- viability, T/C (second compound 10 µM, first compound 3 µM): 146%

- IC50 (curve of compound): 2190 nM and 2550 nM and 2560 nM
Structure (SMILES): C=C(F)C(=O)N1CCN(c2nc(OCC3CCCN3C)nc3c2CCN(c2cccc4cccc(Cl)c24)C3)CC1CC#N (stereo not drawn)
- viability, T/C (compound 0.0316 µM): 107% (2×) and 96.3%
- viability, T/C (compound 0.1 µM): 113% and 98.5% and 93.6%
- viability, T/C (compound 0.316 µM): 109% and 84.2% and 106%
- viability, T/C (compound 1 µM): 101% and 105% and 104%
- viability, T/C (compound 3.16 µM): 25.7% and 39.4% and 37.9%
- viability, T/C (compound 10 µM): 0.33% and 0.7% and 1.79%
